“Also recorded” adds a separate entry of the source. Read-outs that look alike come from different tables or passages of the source.
What was measured:
[1] = test system: sPLA2 group I; experiment: native polyacrylamide gel electrophoresis, enzyme migration; parameters: species or system Naja mossambica; conditions: for sPLA2 band on native gel, with peptide and substrate: 26 μM sPLA2, 40 μM CHEC-9, 560 μM substrate, 2 mM CaCl2, pH 7.4, room temperature 30 min, repeated four times
Method: Polyacrylamide gradient gels (5–15%) were run with and without SDS or reducing agents using sPLA2 group I alone or after mixing the enzyme with different combinations of the components of the reaction mixture (or their solvents). Samples prepared for the native gels were 50 μl containing 26 μM sPLA2, 40 μM CHEC-9, 560 μM 1-Palmitoyl-2-Pyrenedecanoyl Phosphatidylcholine (substrate), and 2 mM CaCl2 in 20 mM tris buffer (pH = 7.4), incubated together at room temperature for 30 min. After incubation, the samples were evaporated to 20 μl. The samples were then mixed with sample buffer containing only glycerol and bromophenol blue in 0.1 M tris (pH = 6.8) and loaded onto the gels. Following electrophoresis, the gels were washed, fixed, and stained with silver reagent according to conventional methods. The native gel experiment, using different reactant combinations run side by side (Fig. 3), was repeated four times with the same result.

[2] = test system: cerebral cortex lesions; parameters: method as in PMID 15684658; conditions: rat, ref [6], cited from earlier work
[3] = target: sPLA2 group I; experiment: 10-pyrene fluorescence enzyme assay, sPLA2 group I (Lineweaver-Burke / Michaelis-Menton); type: biochemical, Naja mossambica; conditions: for Km: without inhibitor 18.80; for Km / Vmax: 5 nM sPLA2, 10-pyrene 2-7 μM, nonlinear regression of Vo; for Vmax: without inhibitor 21.67; for reduction of Vo with varied enzyme concentration: sPLA2 2, 6, 10 nM, CHEC-9 0.1, 1, 10 nM
Method: (§1) Purified secreted phospholipase A2 group I from the venom of the Mozambique cobra (Naja mossambica) was obtained from Sigma. Blood was obtained from the trunk of 20 female Sprague Dawley rats (200–250 g) after decapitation, and by venipunture of 14 healthy adult humans of both sexes. Blood samples from 8 additional rats were collected following subcutaneous injections of 100 μg CHEC-9 or DMEM vehicle. These rats were placed in a standard rat restrainer during the collection period and the samples obtained via a tail nick. All specific procedures of this study were approved by both the Institutional Animal Care and Use Committee and by Institutional Review Board of Drexel University College of Medicine. Blood samples were treated with citrate-phosphate-dextrose anticoagulant (1:10, Sigma), and plasma prepared by centrifugation, before freezing at -80° until used in the enzyme assays. For the ex vivo studies, individual plasma samples were pooled from 3–7 rats or 3–5 humans.
(§2) Enzyme assays were conducted at ambient temperature (22–25°) using a Victor 3 fluorescent reader (Perkin Elmer, Nutley NJ). The substrate was 1-Palmitoyl-2-Pyrenedecanoyl Phosphatidylcholine ("10-pyrene", Caymen Chemical, Ann Arbor MI) a substrate for all calcium dependent PLA2s with the exception of cPLA2 and PAF-AH. The substrate (supplied in chloroform) was dried under a nitrogen stream, quickly dissolved in ethanol, and stored at -20° prior to use. Substrate solutions were prepared in reaction buffer consisting of 50 mM tris (pH = 7.4), 0.1 M NaCl, 2 mM CaCl2, 0.25% fatty acid-free albumin (Sigma) and the CHEC-9 peptide at the indicated concentrations. CHEC-9 ([…]) was synthesized by Celtek, (Nashville, TN), purified and cross-linked as described previously, and aliquots stored in tris buffer or DMEM vehicles at -80°. The 10-pyrene substrate forms phospholipids vesicles in aqueous solutions [13], and upon hydrolysis, releases 10-pyrenyldecanoic acid. This product is fluorescent in the presence of albumin and was measured at 350 nm excitation, 405 nm emission. Plasma samples were 20% final concentration in the reaction mixture, and all enzyme reactions were initiated with the addition of the substrate solution to the sPLA2 containing samples. Kinetic parameters including the properties of CHEC-9 were determined by measuring the initial velocities (Vo) of enzyme reactions (within 2 minutes of initiation). […] This rate is proportional to the concentration of active enzyme in the plasma if product formation during this period is linear with respect to time (see Fig. 6). In most experiments, relative fluorescent units (RFU) were converted to product concentration using a pyrenyldecanoic acid standard curve (Molecular Probes, Eugene, OR). […] Individual reactions were carried out in duplicate or triplicate and kinetic curves were produced using 5–6 substrate concentrations, with or without peptide, reacted simultaneously. […] Km and Vmax and r^2 were determined with regression software (Prism) from Graphpad (San Diego, CA).
(§3) The characteristics of CHEC-9 inhibition were determined using both classical characterization of inhibitor types, i.e., the direction of changes in Km and Vmax, and more recent reports that derive consistent relationships between the extent of enzyme inhibition and substrate concentration. […] We have repeated, combined, and rearranged some of their equations below in order to show the calculations used in the present experiments.
(§4) KiNR is the apparent inhibition constant based on inhibition degree and is independent of inhibitor classification. This value varies predictably with substrate concentration for different inhibitor types. It is defined as: […]

[4] = test system: Human Plasma sPLA2; experiment: 10-pyrene fluorescence enzyme assay, human plasma sPLA2 (ex vivo); type: biochemical; conditions: for Vmax: without inhibitor 2.07; for Km: without inhibitor 66.52
Method: as §1, §2, §3, §4

[5] = test system: rat plasma sPLA2; experiment: 10-pyrene fluorescence enzyme assay, rat plasma sPLA2 (ex vivo); type: biochemical, rat (Sprague Dawley)
Method: as §1
Enzyme assays were conducted at ambient temperature (22–25°) using a Victor 3 fluorescent reader (Perkin Elmer, Nutley NJ). The substrate was 1-Palmitoyl-2-Pyrenedecanoyl Phosphatidylcholine ("10-pyrene", Caymen Chemical, Ann Arbor MI) a substrate for all calcium dependent PLA2s with the exception of cPLA2 and PAF-AH. The substrate (supplied in chloroform) was dried under a nitrogen stream, quickly dissolved in ethanol, and stored at -20° prior to use. Substrate solutions were prepared in reaction buffer consisting of 50 mM tris (pH = 7.4), 0.1 M NaCl, 2 mM CaCl2, 0.25% fatty acid-free albumin (Sigma) and the CHEC-9 peptide at the indicated concentrations. CHEC-9 ([…]) was synthesized by Celtek, (Nashville, TN), purified and cross-linked as described previously, and aliquots stored in tris buffer or DMEM vehicles at -80°. The 10-pyrene substrate forms phospholipids vesicles in aqueous solutions [13], and upon hydrolysis, releases 10-pyrenyldecanoic acid. This product is fluorescent in the presence of albumin and was measured at 350 nm excitation, 405 nm emission. Plasma samples were 20% final concentration in the reaction mixture, and all enzyme reactions were initiated with the addition of the substrate solution to the sPLA2 containing samples. Kinetic parameters including the properties of CHEC-9 were determined by measuring the initial velocities (Vo) of enzyme reactions (within 2 minutes of initiation). […] Km and Vmax and r^2 were determined with regression software (Prism) from Graphpad (San Diego, CA).
The characteristics of CHEC-9 inhibition were determined using both classical characterization of inhibitor types, i.e., the direction of changes in Km and Vmax, and more recent reports that derive consistent relationships between the extent of enzyme inhibition and substrate concentration. […]

[6] = test system: sPLA2
Method: as §2, §3

[7] = test system: sPLA2; conditions: 100 μg CHEC-9 s.c.
Method: as §1, with “For the ex vivo studies, individual plasma samples were pooled from 3–7 rats or 3–5 humans.” left out
Enzyme assays were conducted at ambient temperature (22–25°) using a Victor 3 fluorescent reader (Perkin Elmer, Nutley NJ). […] This product is fluorescent in the presence of albumin and was measured at 350 nm excitation, 405 nm emission. […] Kinetic parameters including the properties of CHEC-9 were determined by measuring the initial velocities (Vo) of enzyme reactions (within 2 minutes of initiation). […] Km and Vmax and r^2 were determined with regression software (Prism) from Graphpad (San Diego, CA).

[8] = CHEC-9 10.0 nM, 20% plasma, 10-pyrene 5–30 μM, pH 7.4, 22–25°
[9] = CHEC-9 50.0 nM, 20% plasma, 10-pyrene 5–30 μM, pH 7.4, 22–25°

CHEASAAQC [CHEC-9]
sPLA2 band on native gel, with peptide and substrate [1]: absent or at least dramatically reduced
sPLA2 band on native gel, with peptide and substrate ([1]; listed as peptide): disappeared or was markedly attenuated
sPLA2 band on native gel, peptide alone ([1]; 26 μM sPLA2, 40 μM CHEC-9, no substrate, pH 7.4, room temperature 30 min): The same band appeared
duration of anti-inflammatory and neuron survival effects ([2]; a subcutaneous injection after cerebral cortex lesions): at least 4 days
anti-inflammatory and neuron survival effects ([2]; subcutaneous injection after cerebral cortex lesions): inhibit neuron death and aspects of the inflammatory response; also recorded: anti-inflammatory and neuron survival effects
KiNR (apparent inhibition constant) vs substrate concentration ([3]; 10-pyrene 2-7 μM, 5 nM sPLA2, CHEC-9 0.1, 1.0, 10 nM): varied inversely with the substrate concentration; also recorded: overall decline in this value with increasing substrate concentration for each peptide concentration
Km ([3]; CHEC-9 0.1 nM, pH 7.4, 22–25°): 10.8 µM
Vmax ([3]; CHEC-9 0.1 nM, pH 7.4, 22–25°): 11.54 nM/min/ng
Km ([3]; CHEC-9 1.0 nM, pH 7.4, 22–25°): 3.4 µM
Vmax ([3]; CHEC-9 1.0 nM, pH 7.4, 22–25°): 5.56 nM/min/ng
Km ([3]; CHEC-9 10.0 nM, pH 7.4, 22–25°): 2.26 µM
Vmax ([3]; CHEC-9 10.0 nM, pH 7.4, 22–25°): 4.04 nM/min/ng
change of Vmax and Km ([3]; CHEC-9 0.1-10 nM): reduced both the Vmax and Km of the enzyme reaction
effect of CHEC-9 below 10 nM on Vo at 2 nM or 6 nM sPLA2 ([3]; CHEC-9 lower than 10 nM, 2 nM or 6 nM sPLA2, 6 μM 10-pyrene): minimally effective or ineffective at 2 nM or 6 nM sPLA2
effect of CHEC-9 below 10 nM on Vo at 10 nM sPLA2 ([3]; CHEC-9 lower than 10 nM, 10 nM sPLA2, 6 μM 10-pyrene): produced consistent reductions in reaction velocity when used with 10 nM enzyme
Ki ([3]; Group I sPLA2, uncompetitive, Ki = KiNR/(1+(Km/[S])), pH 7.4, 22–25°): 4.02 ± 1.56 nM
effect on Vo at lowest substrate concentrations ([3]; lowest substrate concentrations): minimally effective, ineffective, or even potentiated Vo
velocity of the enzyme reaction (Vo) ([3]; nanomolar CHEC-9, substrate one-half Km or less): reduced by nanomolar concentrations of CHEC-9
reduction of Vo with varied enzyme concentration ([3]; 6 μM 10-pyrene): maximal reductions of Vo occurred at 10 nM sPLA2
reduction of Vo with varied enzyme concentration ([3]; 6 μM 10-pyrene, listed as peptide): most effective at the highest concentration of sPLA2, and showed declining efficacy at the lower enzyme concentrations
type of inhibition, sPLA2 group I ([3]; substrate at one-half Km or less): most consistent with an uncompetitive (or anti-competitive) inhibitor of sPLA2 group I
type of inhibition, human plasma ([4]; 20% plasma, 10-pyrene 5–30 μM): consistent with the properties of an uncompetitive inhibitor
Vmax [4, 8]: 1.42 μM/min/ml
Km [4, 8]: 40.8 µM
Vmax [4, 9]: 0.973 μM/min/ml
Km [4, 9]: 24.1 µM
change of Km and Vmax, human plasma ([4]; CHEC-9 10, 50 nM, 20% plasma): Km and Vmax of plasma samples were both reduced by CHEC-9
Ki ([4]; Human plasma sPLA2, 20% plasma, uncompetitive, Ki = KiNR/(1+(Km/[S])), pH 7.4, 22–25°): 62 ± 13.2 nM
effect on enzyme activity at lowest substrate concentrations, human plasma ([4]; CHEC-9 10, 50 nM): less effective or even exaggerated the reaction at the lower substrate concentrations
effect on enzyme activity at lowest substrate concentrations, human plasma ([4]; CHEC-9 10, 50 nM, listed as peptide): exaggerated enzyme activity in human plasma at the lowest substrate concentrations used
inhibition with increased substrate concentrations, rat plasma ([5]; 25 nM CHEC-9, 20% plasma, increased substrate, mean of three reactions): this delay of the inhibition is not detected
inhibition at very low substrate concentrations, rat plasma ([5]; 25 nM CHEC-9, 20% plasma, very low substrate, mean of three reactions): delayed inhibition at the lower substrate concentrations
inhibition at lower substrate concentrations, rat plasma ([5]; lower substrate concentrations, product formation relatively stable): inhibition by CHEC-9 was readily observed
effect at high substrate concentrations (substrate inhibition), rat plasma ([5]; substrate > 25 μM): would sometimes reverse this inhibitory effect
specificity ([6]; plasma and venom-derived sPLA2): broad specificity
Ki ([6]; read-out: Ki (individual experiments), individual experiments repeated 5 or more times, pH 7.4, 22–25°): < 100 nM
Ki ([6]; read-out: Ki values (all cases), venom-derived sPLA2 group I and plasma of rats and humans): < 100 nM
type of inhibition (all enzyme sources) ([6]; venom-derived sPLA2 group I, plasma of rats and humans): uncompetitive (or anti-competitive) enzyme inhibitor
level of active sPLA2 vs pre-injection ([7]; restrained rats, n = 4, on average): holding the level of active enzyme, on average, near pre-injection values
significance of sPLA2 reduction vs vehicle ([7]; p < 0.05 by Mann Whitney test, n = 4 rats per group): significant differences at 30 and 60 minutes

From publication PMC1624820, “Inhibition of secreted phospholipase A2 by neuron survival and anti-inflammatory peptide CHEC-9” (Journal of Neuroinflammation, 2006)
